Like-named read-outs stand apart in the source and are kept apart here.
How the values were obtained:
Assay type in all cases: cell-based
RPMI-8226 = assay: NCI60 five-dose screen, Leukemia; conditions: Homo sapiens
COLO 205 = assay: NCI60 five-dose screen, Colon Cancer; conditions: Homo sapiens
UACC-62 = assay: NCI60 five-dose screen, Melanoma; conditions: Homo sapiens
SF-295 = assay: NCI60 five-dose screen, CNS Cancer; conditions: Homo sapiens
[1] = test system: 60 human tumor cell lines (NCI60); assay: NCI60 five-dose screen, whole panel and sub-panel means; conditions: Homo sapiens
K-562 = assay: NCI60 five-dose screen, Leukemia; conditions: Homo sapiens, K562
HT29 = assay: NCI60 five-dose screen, Colon Cancer; conditions: Homo sapiens, HT-29
SK-OV-3 = assay: NCI60 five-dose screen, Ovarian Cancer; conditions: Homo sapiens
HCT-15 = assay: NCI60 five-dose screen, Colon Cancer; conditions: Homo sapiens
SK-MEL-5 = assay: NCI60 five-dose screen, Melanoma; conditions: Homo sapiens
OVCAR-8 = assay: NCI60 five-dose screen, Ovarian Cancer; conditions: Homo sapiens
NCI-H23 = assay: NCI60 five-dose screen, Non-small Cell Lung Cancer; conditions: Homo sapiens
MDA-MB-435 = assay: NCI60 five-dose screen, Melanoma; conditions: Homo sapiens
HOP-62 = assay: NCI60 five-dose screen, Non-small Cell Lung Cancer; conditions: Homo sapiens
HOP-92 = assay: NCI60 five-dose screen, Non-small Cell Lung Cancer; conditions: Homo sapiens
MDA-MB-468 = assay: NCI60 five-dose screen, Breast Cancer; conditions: Homo sapiens
NCI-H226 = assay: NCI60 five-dose screen, Non-small Cell Lung Cancer; conditions: Homo sapiens
BT-549 = assay: NCI60 five-dose screen, Breast Cancer; conditions: Homo sapiens
CAKI-1 = assay: NCI60 five-dose screen, Renal Cancer; conditions: Homo sapiens
DU-145 = assay: NCI60 five-dose screen, Prostate Cancer; conditions: Homo sapiens
EKVX = assay: NCI60 five-dose screen, Non-small Cell Lung Cancer; conditions: Homo sapiens
T-47D = assay: NCI60 five-dose screen, Breast Cancer; conditions: Homo sapiens, T47D
SK-MEL-28 = assay: NCI60 five-dose screen, Melanoma; conditions: Homo sapiens
HCT-116 = assay: NCI60 five-dose screen, Colon Cancer; conditions: Homo sapiens
U251 = assay: NCI60 five-dose screen, CNS Cancer; conditions: Homo sapiens, U-251
HL-60(TB) = assay: NCI60 five-dose screen, Leukemia; conditions: Homo sapiens
M14 = assay: NCI60 five-dose screen, Melanoma; conditions: Homo sapiens
LOX IMVI = assay: NCI60 five-dose screen, Melanoma; conditions: Homo sapiens
SF-268 = assay: NCI60 five-dose screen, CNS Cancer; conditions: Homo sapiens
SK-MEL-2 = assay: NCI60 five-dose screen, Melanoma; conditions: Homo sapiens
A498 = assay: NCI60 five-dose screen, Renal Cancer; conditions: Homo sapiens
SF-539 = assay: NCI60 five-dose screen, CNS Cancer; conditions: Homo sapiens
SNB-19 = assay: NCI60 five-dose screen, CNS Cancer; conditions: Homo sapiens
RXF 393 = assay: NCI60 five-dose screen, Renal Cancer; conditions: Homo sapiens, RXF 393, Renal Cancer

## CC[C@]12C=CCN3CC[C@@]4(c5ccc(OC)cc5N(C)[C@H]4[C@@](O)(C(=O)OC)[C@@H]1OC(=O)CCCN1CCN(C(c4ccc(F)cc4)c4ccc(F)cc4)CC1)[C@@H]32 [Compound 25]
RPMI-8226; RPMI-8226
  GI50: 1950 nM
COLO 205; COLO 205
  GI50: 1660 nM
UACC-62; UACC-62
  GI50: 1780 nM
SF-295; SF-295
  GI50: 1700 nM
[1]; 60 cell, read-out: GI50 Mean, mean over all 60 cell lines
  GI50: 1850 nM
[1]; on almost all cell lines, five-dose screen
  GI50: < 2000 nM
[1]; read-out: GI50 Mean, mean over Breast Cancer panel
  GI50: 1670 nM
[1]; read-out: GI50 Mean, mean over CNS Cancer panel
  GI50: 2210 nM
[1]; read-out: GI50 Mean, mean over Colon Cancer panel
  GI50: 1730 nM
[1]; read-out: GI50 Mean, mean over Leukemia panel
  GI50: 1760 nM
[1]; read-out: GI50 Mean, mean over Melanoma panel
  GI50: 1780 nM
[1]; read-out: GI50 Mean, mean over Non-small Cell Lung Cancer panel
  GI50: 1850 nM
[1]; read-out: GI50 Mean, mean over Ovarian Cancer panel
  GI50: 1730 nM
[1]; read-out: GI50 Mean, mean over Prostate Cancer panel
  GI50: 1650 nM
[1]; read-out: GI50 Mean, mean over Renal Cancer panel
  GI50: 2180 nM
K-562
  GI50: 1910 nM
HT29
  GI50: 1910 nM
SK-OV-3; SK-OV-3
  GI50: 1550 nM
HCT-15; HCT-15
  GI50: 1700 nM
SK-MEL-5; SK-MEL-5
  GI50: 1550 nM
OVCAR-8; OVCAR-8
  GI50: 2090 nM
NCI-H23; NCI-H23
  GI50: 1910 nM
MDA-MB-435; MDA-MB-435
  GI50: 1660 nM
HOP-62; HOP-62
  GI50: 1620 nM
HOP-92; HOP-92
  GI50: 1350 nM
MDA-MB-468; MDA-MB-468
  GI50: 1510 nM
NCI-H226; NCI-H226
  GI50: 2040 nM
BT-549; BT-549
  GI50: 1780 nM
CAKI-1; CAKI-1
  GI50: 1480 nM
DU-145; DU-145
  GI50: 1780 nM
EKVX
  GI50: 1700 nM
T-47D
  GI50: 1660 nM
SK-MEL-28; SK-MEL-28
  GI50: 1740 nM
HCT-116; HCT-116
  GI50: 1780 nM
U251
  GI50: 1550 nM
HL-60(TB); HL-60
  GI50: 1550 nM
M14; M14
  GI50: 1910 nM
LOX IMVI
  GI50: 1740 nM
SF-268; SF-268
  GI50: 1700 nM
SK-MEL-2; SK-MEL-2
  GI50: 2400 nM
A498; A498
  GI50: 5250 nM
SF-539; SF-539
  GI50: 1660 nM
SNB-19; SNB-19
  GI50: 1660 nM

## CCC12C=CCN3CCC4(c5cc(NC(=O)CN6CCN(c7ccc(C(F)(F)F)cc7)CC6)c(OC)cc5N(C)C4C(O)(C(=O)OC)C1OC(C)=O)C32 (centres unmarked) [Compound 17]
RXF 393
  GI50: 5370 nM
RPMI-8226; RPMI-8226, Leukemia, five-dose screen, read-out: GI50
  GI50: 3090 nM
COLO 205; COLO 205, Colon Cancer, five-dose screen, read-out: GI50
  GI50: 3240 nM
UACC-62; UACC-62, Melanoma, five-dose screen, read-out: GI50
  GI50: 10200 nM
SF-295; SF-295, CNS Cancer, five-dose screen, read-out: GI50
  GI50: 3550 nM
[1]; 60 cell, mean over all 60 cell lines, read-out: GI50 Mean
  GI50: 5530 nM
[1]; mean over Breast Cancer panel, read-out: GI50 Mean
  GI50: 6110 nM
[1]; mean over CNS Cancer panel, read-out: GI50 Mean
  GI50: 4010 nM
[1]; mean over Colon Cancer panel, read-out: GI50 Mean
  GI50: 4310 nM
[1]; mean over Leukemia panel, read-out: GI50 Mean
  GI50: 2750 nM
[1]; mean over Melanoma panel, read-out: GI50 Mean
  GI50: 5890 nM
[1]; mean over Non-small Cell Lung Cancer panel, read-out: GI50 Mean
  GI50: 7290 nM
[1]; mean over Ovarian Cancer panel, read-out: GI50 Mean
  GI50: 6480 nM
[1]; mean over Prostate Cancer panel, read-out: GI50 Mean
  GI50: 4880 nM
[1]; mean over Renal Cancer panel, read-out: GI50 Mean
  GI50: 6010 nM
K-562; K-562, Leukemia, five-dose screen, read-out: GI50
  GI50: 3020 nM
HT29; HT29, Colon Cancer, five-dose screen, read-out: GI50
  GI50: 2090 nM
SK-OV-3; SK-OV-3, Ovarian Cancer, five-dose screen, read-out: GI50
  GI50: 3310 nM
HCT-15; HCT-15, Colon Cancer, five-dose screen, read-out: GI50
  GI50: 3890 nM
SK-MEL-5; SK-MEL-5, Melanoma, five-dose screen, read-out: GI50
  GI50: 2400 nM
OVCAR-8; OVCAR-8, Ovarian Cancer, five-dose screen, read-out: GI50
  GI50: 8510 nM
NCI-H23; NCI-H23, Non-small Cell Lung Cancer, five-dose screen, read-out: GI50
  GI50: 10700 nM
MDA-MB-435; MDA-MB-435, Melanoma, five-dose screen, read-out: GI50
  GI50: 1950 nM
HOP-62; HOP-62, Non-small Cell Lung Cancer, five-dose screen, read-out: GI50
  GI50: 3720 nM
HOP-92; HOP-92, Non-small Cell Lung Cancer, five-dose screen, read-out: GI50
  GI50: 2570 nM
MDA-MB-468; MDA-MB-468, Breast Cancer, five-dose screen, read-out: GI50
  GI50: 2400 nM
NCI-H226; NCI-H226, Non-small Cell Lung Cancer, five-dose screen, read-out: GI50
  GI50: 6460 nM
BT-549; BT-549, Breast Cancer, five-dose screen, read-out: GI50
  GI50: 2340 nM
CAKI-1; CAKI-1, Renal Cancer, five-dose screen, read-out: GI50
  GI50: 2630 nM
DU-145; DU-145, Prostate Cancer, five-dose screen, read-out: GI50
  GI50: 6460 nM
EKVX; Non-small Cell Lung Cancer, five-dose screen, read-out: GI50
  GI50: 6030 nM
T-47D; T-47D, Breast Cancer, five-dose screen, read-out: GI50
  GI50: 2190 nM
SK-MEL-28; SK-MEL-28, Melanoma, five-dose screen, read-out: GI50
  GI50: 5890 nM
HCT-116; HCT-116, Colon Cancer, five-dose screen, read-out: GI50
  GI50: 3720 nM
U251; U251, CNS Cancer, five-dose screen, read-out: GI50
  GI50: 6030 nM
HL-60(TB); HL-60(TB), Leukemia, five-dose screen, read-out: GI50
  GI50: 2140 nM
M14; M14, Melanoma, five-dose screen, read-out: GI50
  GI50: 3630 nM
LOX IMVI; Melanoma, five-dose screen, read-out: GI50
  GI50: 4270 nM
SF-268; SF-268, CNS Cancer, five-dose screen, read-out: GI50
  GI50: 3020 nM
SK-MEL-2; SK-MEL-2, Melanoma, five-dose screen, read-out: GI50
  GI50: 4370 nM
A498; A498, Renal Cancer, five-dose screen, read-out: GI50
  GI50: 10700 nM
SF-539; SF-539, CNS Cancer, five-dose screen, read-out: GI50
  GI50: 4680 nM
SNB-19; SNB-19, CNS Cancer, five-dose screen, read-out: GI50
  GI50: 5370 nM

From PMC11277489, “Novel Piperazine Derivatives of Vindoline as Anticancer Agents” (International Journal of Molecular Sciences, 2024)
